# Experimental data published in patent publication US6468987B1, “Nutritional product for a person having ulcerative colitis” (Abbott Laboratories, priority 1994, dated 2002).
# Marks after values point to notes of the source that are not given here.
# How the values were obtained:
# [1] = tested on: distal colitis induced by peptidoglycan/polysaccharide (PG/PS); assay: PG/PS-induced acute and chronic distal colitis in rats; assay type: in vivo, Female Lewis rats
# Method: For these reasons, a model of acute and chronic distal colitis in rats was developed based upon a previously published method in which purified bacterial cell wall polymers (derived from Group A streptococci) are injected intramurally into the distal colon of genetically-susceptible rats. Sartor et al., “Granulomatus Entercolitis Induced by Purified Bacterial Cell Wall Fragments”, GASTROENTEROLOGY, Vol. 89, pages 587-595 (1985). This model produces an acute and chronic inflammation characterized by the infiltration of large numbers of inflammatory cells, enhanced mucosal permeability, interstitial fibrosis, and mucosal thickening as well as the extraintestinal manifestations of arthritis, hepatic and splenic granulomas. Unlike most models of colitis, the inflammation induced in this model promoting mucosal and submucosal injury rather than the injury causing the inflammation.
# In Experiment 2 the objectives were: (a) to determine whether this model of colitis responds to sulfasalazine (SAZ) and (b) to assess the effects of specially formulated enteral diets on the injury and inflammation observed in the colon, liver and spleen.
# Female Lewis rats (150-175 g) were maintained in a controlled temperature and light-dark cycle (12 hours:12 hours) and housed in wire-mesh bottomed cages and given water and standard laboratory rat chow ad libitum. A total of 48 rats were divided into 6 groups of 8 rats each consisting of a sham (rats receiving Diet #1 {base diet} with no peptidoglycan/polysaccharide {PG/PS} injection) control group, a chow group and 4 groups of rats placed on 4 different polymeric diets (Table 6). Rats received either chow or polymeric diets (320 kcals/kg/day or 60 mL of liquid diet/day) for 7 days preceding induction of colitis. Distal colitis was induced by a modification of the method of Sartor et al in which multiple sites (8-9) along the distal colon were injected intramurally with 60 ul/site to deliver a dose of peptidoglycan/polysaccharide (PG/PS) of 12.5 ug/g body weight. The albumin (sham) control group received the same number of injections of human serum albumin into the distal colon.
# Total dietary intake and body weights of the control and liquid diet groups were recorded for each 24 hour period during the course of the 4 week experiment (1 week prior to the induction of colitis and 3 weeks following PG/PS or albumin injection).
# To assess the effects of SAZ in this model, female Lewis rats were orally administered SAZ immediately following the induction of colitis. Rats were given chow ad libitum for the duration of the four week study period. Similar measurements were assessed as described below.
# All rats receiving nutritional therapy or SAZ were euthanized with an overdose of pentobarbital and the distal colon and cecum were excised and opened longitudinally. The length and weight of the perfused segment were recorded and the tissue divided longitudinally into three strips for wet-to-dry ratios, histology and myeloperoxidase (MPO) determinations. Colonic MPO activity was determined in which 3,3′ 5,5′ tetramethylbenzidine was used as the electron donating substrate and hexadecyltrimethylammonium hydroxide was used as the detergent. Spleen and liver weights were recorded. Circulating levels of nitrate and nitrite were also quantified using the Griess reagent and used as indices of immune system activation (i.e. activation of the reticuloendothelial system {nitric oxide synthase}). The studies were analyzed as a completely randomized design. Treatment differences were separated using an F-protected least significant difference (LSD) method. In both studies additional chow fed control animals that were treated under laboratory conditions described above were incorporated in the statistical analysis.
# [2] = tested on: active ulcerative colitis; conditions: dietary supplementation; cited from earlier work
# [3] = SAZ orally from induction of colitis, chow fed PG/PS rats, least square means
# [4] = oral SAZ vs PG/PS treated animals and sham control
# [5] = oral SAZ vs chow fed group receiving PG/PS
Compound,"COLON WT [1, 3]","Liver wt [1, 3]","MPO ACTIVITY [1, 3]","Spleen wt [1, 3]","liver weight, in words [1, 4]","spleen weight, in words [1, 4]","colon weight, in words [1, 5]","increases in MPO activity, in words [1, 5]","histological inspection of the SAZ-treated tissue ([1]; oral SAZ, PG/PS colitis)",eicosanoid levels from rectal dialysate fluid [2]
"O=C(O)c1cc(/N=N/c2ccc(S(=O)(=O)Nc3ccccn3)cc2)ccc1O [SAZ, sulfasalazine]",".021 ± .004^a,b g dry wt/cm",34.0 ± 3.6^b mg/g bw,1.40 ± 2.9^b units/cm colon,2.92 ± 1.3^b mg/g bw,significantly lower than the PG/PS treated animals and comparable to the sham control,significantly lower than the PG/PS treated animals and comparable to the sham control,tended to reduce,significantly attenuated,inhibition of leukocyte infiltration and fibrosis,–
vitamin E,–,–,–,–,–,–,–,–,–,not to promote changes
